The subject of the assay is HCT116 cells. In words: Mitotic arrest assay on HCT116 cells (phospho-histone H3 Ser10). In kind it is cell-based, human. The following applies: Homo sapiens, HCT-116, HCT116 cells; lowest active dose; read-out: Mitotic arrest HCT116 LAD (converted). In short, it runs like this: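 Seeded overnight, then compound-treated 6 h at 37 °C (≤0.1% DMSO); fixed, stained with Alexa Fluor 488 anti-phospho-H3 (Ser10) plus Hoechst 33342, imaged on InCell Analyzer 1000. Blank-subtracted signal divided by SD (sigma), triplicate; value is lowest dose giving sigma >5 (LAD).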

In the case of `CCc1cc2ccc(C(C)(C#N)Cc3cccc(-c4cnn(C)c4)c3)cc2[nH]c1=O` (centres unmarked) [Compound 17], the minimal effective concentration is 1 µM.
As for `CCc1cc2ccc(C(C)(C#N)Cc3cccc(O)c3)cc2[nH]c1=O` (centres unmarked) [Compound 22], the figure is 3.16 µM; as for `CCc1cc2ccc(C(C)(C#N)Cc3cccc(OCc4ccccc4)c3)cc2[nH]c1=O` (centres unmarked) [Compound 23], 1 µM.
As for `CCc1cc2ccc(C(C)(C#N)Cc3cccc(N4CCOCC4)c3)cc2[nH]c1=O` (centres unmarked) [Compound 21], the figure is 0.316 µM.
With `CCc1cc2ccc(C(C)(C#N)Cc3cccc(-c4ccccc4)c3)cc2[nH]c1=O` (centres unmarked) [Compound 18], the minimal effective concentration is 0.316 µM.
As for `CCc1cc2ccc(C(C)(C#N)Cc3cccc(I)c3)cc2[nH]c1=O` (centres unmarked) [Compound 19], the figure is 0.1 µM; as for `CCc1cc2ccc(C(C)(C#N)Cc3cccc(OCCOC)c3)cc2[nH]c1=O` (centres unmarked) [Compound 24], 1 µM; as for `CCc1cc2ccc(C(C)(C#N)Cc3cccc(N(C)C)c3)cc2[nH]c1=O` (centres unmarked) [Compound 20], 0.1 µM.

For the origin of these results see patent US8778966B2, “Quinolinone derivatives as PARP and tank inhibitors” (Janssen Pharmaceutica, NV, priority 2007, dated 2014).
